# In paper PMC7824363, “The Cytotoxicity of RNase-Derived Peptides” (Biomolecules, 2020):
# Assays:
# [1] = target: epidermal growth factor receptor (human (endogenous in BT-20)) (UniProt P00533)
# [2] = tested on: MCF-7 cells; test: MTT assay, MCF-7 cell viability; assay type: cell-based, human; details: 125 µM, 48 h
# Description: (§1) The human alveolar adenocarcinoma cell line (A549), two breast cancer cell lines (MCF-7 and BT-20), and cervical cancer cell line (HeLa) were obtained from American Type Culture […] (Rockville, MD, USA). Cells were grown at 37 °C in humidified 5% CO2 atmosphere using RPMI 1640 medium for A549 cells and Dulbecco’s modified Eagle’s medium for MCF-7, BT-20, and HeLa cells supplemented with 10% fetal bovine serum (HyClone), 2 mM glutamine, and antibiotics (penicillin and streptomycin, 100 U/mL each).
# (§2) The viability of untreated control cells and cells treated with binase and binase-derived peptides at different concentrations (5, 50, and 125 μM) was determined according to the mitochondrial nicotinamide adenine dinucleotide phosphate NAD(P)H-dependent cellular oxidoreductases activity tested by the standard procedure based on the reduction of the tetrazolium dye MTT) to its insoluble product formazan, which has a purple color. Cells at the initial concentration of […] per well were grown in a 96-well plate (CELLTREAT Scientific Products, Shirley, MA, USA); then, the culture fluid was discarded and fresh medium with peptides was added. After 48 h, formazan absorption was measured at 570 nm (xMark, Bio-Rad, Hercules, CA, USA). The amount of formazan produced is proportional to the number of viable cells. The viability of untreated cells was taken as 100%.
# [3] = tested on: BT-20 cells; test: MTT assay with cetuximab pre-treatment (EGFR inhibition); assay type: cell-based, human; details: 10 μg/mL cetuximab for 48 h, then 50 μM peptide for 48 h
# Description: To examine the peptide effect on EGFR signaling, the EGFR-specific monoclonal antibody cetuximab (Merck, KGaA, Darmstadt, Germany) was added at the concentration of 10 μg/mL to cells grown for 24 h in 96-well plates. After 48 h of exposure to inhibitor, half the wells were treated with the B74–94 peptide at 50 μM concentration, and the cells were allowed to grow for another 48 h. Afterwards, cell proliferation was assessed by the MTT assay.
# [4] = tested on: BT-20 cells; test: Immunofluorescence confocal microscopy, entry into BT-20 cells; assay type: cell-based, human; details: 50 µM, 30 min incubation, His-tagged peptides (anti-His Alexa Fluor 647) or tagless binase (anti-binase, FITC), confocal laser scanning microscopy
# Description: (§3) A549 cells (25,000 cells/well) and BT-20 cells (150,000 cells/well) were seeded on 4-well chamber slides and incubated for 24 h in 800 µL of 10% fetal bovine serum containing RPMI or DMEM, respectively. The medium was replaced with the fresh one, and the His-tagged B21–50 and B74–94 peptides or tagless binase were applied to each well at the final concentration of 50 µM. After 30 min of incubation, the medium was removed, and the cells were washed three times with ice-cold phosphate-buffered saline (PBS). Then, cells were fixed in a 4% paraformaldehyde solution for 15 min and permeabilized in 0.1% Triton-X100 solution in PBS for 10 min. Binase-treated cells were incubated overnight with anti-binase antibodies (1:500) at 4 °C [39]. Thereafter, the cells were washed three times in PBS containing 0.1% Tween for 10 min each and then were incubated with fluorescein isothiocyanate (FITC)-conjugated mouse anti-rabbit immunoglobulin G (IgG) (H+L) cross-adsorbed secondary antibody (Thermo Fisher Scientific, Inc., Waltham, MA, USA Cat.# 31584) at the concentration of 2 µg/mL in PBS containing 1% bovine serum albumin at room temperature for 45 min in the dark. Non-specific binding of the secondary antibodies was evaluated at the same experiment but without treatment with primary antibodies. […]
# [5] = tested on: A549 cells; test: Immunofluorescence confocal microscopy, entry into A549 cells; assay type: cell-based, human; details: 50 µM, 30 min incubation, His-tagged peptides (anti-His Alexa Fluor 647) or tagless binase (anti-binase, FITC), confocal laser scanning microscopy
# Description: as §3
# [6] = tested on: BT-20 cells; test: MTT assay, BT-20 cell viability; assay type: cell-based, human; details: 48 h
# Description: as §1, §2
# [7] = tested on: HeLa cells; test: MTT assay, HeLa cell viability; assay type: cell-based, human; details: 48 h, versus untreated cells = 100%, triplicate
# Description: as §1, §2
# [8] = concentration not specified (5-125 µM tested)
substance,measurement,setting,value
binase-derived peptide B74–94,"cytotoxicity of B74–94 (50 μM, 48 h) toward BT-20 cells by MTT assay after 48 h of pre-treatment with 10 μg/mL cetuximab (EGFR-specific antibody)",[1],28%
"B74–94: chemically synthesized peptide corresponding to binase region 74–94 (DINYVSGFRNADRLVYSSDWL; UniProt P00649 127-147, looked up, fragment)",inhibition of cell proliferation (fold),[2],two-fold
same,decrease of cytotoxicity after preliminary cell treatment with cetuximab,[3],28%
same,detection inside BT-20 cells,[4],detected inside BT-20 cells
same,detection inside A549 cells,[5],not been visualized
"B1–20: chemically synthesized peptide corresponding to binase region 1–20 (AVINTFDGVADYLIRYKRLP; UniProt P00649 54-73, looked up, fragment)",decrease of cell viability,[6]; [8],15–25%
"B21–50: chemically synthesized peptide corresponding to binase region 21–50 (DNYITKSQASALGWVASKGNLAEVAPGKSI; UniProt P00649 74-103, looked up, fragment)",decrease of cell viability,[7]; 50 µM,45%
same,decrease of cell viability,[7]; 125 µM (highest concentration),93%
same,decrease of cell viability,"[6]; 5 µM, versus non-treated cells, triplicate",28%
same,decrease of cell viability,"[6]; 50 µM, versus non-treated cells, triplicate",23%
same,decrease of cell viability,"[6]; 125 µM, versus non-treated cells, triplicate",68%
same,detection inside BT-20 cells,[4],detected inside BT-20 cells
same,detection inside A549 cells,[5],not been visualized
"B95–109: chemically synthesized peptide corresponding to binase region 95–109 (IYKTTDHYATFTRIR; UniProt P00649 148-162, looked up, fragment)",decrease of cell viability,[6]; [8],15–25%
